# Literature values, collected in patent publication US11441162B2, “Human gut microbiome-derived biosynthetic enzymes for production of fatty acid amides” (Massachusetts Institute of Technology, priority 2019, dated 2022).
# Target: T1, GPR119 (Homo sapiens, UniProt Q8TDV5)
# T1 sequence (Q8TDV5 1-335): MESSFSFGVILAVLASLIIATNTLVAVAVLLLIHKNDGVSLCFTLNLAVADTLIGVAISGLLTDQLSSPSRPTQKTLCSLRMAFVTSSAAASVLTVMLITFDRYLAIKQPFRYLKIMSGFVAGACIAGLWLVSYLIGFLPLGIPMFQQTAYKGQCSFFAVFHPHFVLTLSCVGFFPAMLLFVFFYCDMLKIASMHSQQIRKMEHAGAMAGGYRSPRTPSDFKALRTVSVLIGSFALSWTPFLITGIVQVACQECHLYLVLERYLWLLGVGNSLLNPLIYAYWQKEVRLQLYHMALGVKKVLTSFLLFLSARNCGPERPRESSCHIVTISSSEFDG
# Conditions: previously reported human microbiome-derived FAA GPCR modulator; read-out: GPR119 agonist at (previously reported); cited from earlier work
smiles,measurement,value
CCCCCCCC/C=C\CCCCCCCC(=O)NC(CO)CO [oleoyl serinol],EC50,7 µM
